Experiments:
ERK1 = biological target: T1, ERK1 (Homo sapiens, UniProt P27361); test: ERK1 enzyme activity test (ADP-Glo Kinase Assay); type: biochemical; settings: chemiluminescence
T1 construct: purchased R&D 1879-KS-010
Description: (§1) The purpose of this experiment is to detect the inhibitory ability of the compounds on the ERK1 enzyme activity and evaluate the activity of the compounds in vitro according to IC50. The ADP-Glo™ Kinase Assay Kit was used in this experiment. Under the action of enzyme, the substrate was phosphorylated and ADP was produced at the same time. The ADP-Glo Reagent was added to remove unreacted ATP in the reaction system. The kinase detection reagent was used to detect the ADP produced by the reaction. In the presence of the compound, the inhibition rate of the compound was calculated by measuring the signal value.
Enzyme and substrate preparation: ERK1 (1879-KS-010, R&D) and substrate (AS-61777, anaspec) were prepared to be 0.75 ng/μl and 100 μM respectively in the buffer. The enzyme solution and substrate solution were then prepared into a mixed solution at a volume ratio of 2:1 for later use. ATP was diluted to 300 μM with the buffer. The compounds were dissolved in DMSO (dimethyl sulfoxide, Shanghai Titan Scientific Co., Ltd.) to prepare a stock solution with an initial concentration of 20 mM, and then Bravo was used to prepare solutions of the compounds. Finally, a 3 μL of a mixed solution of enzyme and substrate, and 1 μL of different concentrations of the compound (the initial concentration is 50 μM, 4-fold dilution) were added to each well of the 384-well plate, and the plate was incubated at 30° C. for 10 minutes, and finally 1 μL of 300 μM ATP solution was added to each well, and the plate was incubated at 30° C. for 2 hours. Then 5 μL of ADP-Glo was added, and the plate was incubated at 30° C. for 40 minutes. Then 10 μL of Kinase detection buffer was added, and the plate was incubated at 30° C. for 40 minutes. The 384-well plate was taken out and placed in a microplate reader (BMG labtech, PHERAstar FS), and the chemiluminescence was measured by the microplate reader.
(§2) The data were processed and analyzed with Microsoft Excel, Graphpad Prism 5.

ERK2 = biological target: T2, ERK2 (Homo sapiens, UniProt P28482); test: ERK2 enzyme activity test (ADP-Glo Kinase Assay); type: biochemical; settings: chemiluminescence
T2 construct: purchased R&D 1230-KS-010
T2 sequence (P28482 whole entry): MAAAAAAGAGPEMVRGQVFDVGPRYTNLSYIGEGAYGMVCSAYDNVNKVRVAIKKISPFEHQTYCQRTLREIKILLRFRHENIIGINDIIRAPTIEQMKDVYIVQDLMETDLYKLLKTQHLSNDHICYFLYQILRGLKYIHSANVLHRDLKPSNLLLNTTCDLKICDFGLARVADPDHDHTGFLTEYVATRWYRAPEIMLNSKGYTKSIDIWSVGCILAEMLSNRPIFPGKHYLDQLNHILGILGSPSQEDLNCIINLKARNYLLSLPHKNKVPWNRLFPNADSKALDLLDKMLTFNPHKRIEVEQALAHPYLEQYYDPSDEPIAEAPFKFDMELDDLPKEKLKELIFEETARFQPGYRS
Description: as §1, with “ERK2” for “ERK1”
Enzyme and substrate preparation: ERK2 (1230-KS-010, R&D) and substrate (Custom peptides, Gill Biochemical) were prepared to be 0.75 ng/μl and 1500 μM in the buffer (40 mM Tris, 20 mM MgCl2, 0.1 mg/mL BSA, 50 μM DTT). The enzyme solution and substrate solution were then prepared into a mixed solution at a volume ratio of 2:1 for later use. ATP was diluted to 500 μM with the buffer. The compounds were dissolved in DMSO (dimethyl sulfoxide, Shanghai Titan Scientific Co., Ltd.) to prepare a stock solution with an initial concentration of 20 mM, and then Bravo was used to prepare solutions of the compounds. Finally, a 3 μL of a mixed solution of enzyme and substrate, and 1 μL of different concentrations of the compound (the initial concentration is 50 μM, 4-fold dilution) were added to each well of the 384-well plate, and the plate was incubated at 30° C. for 10 minutes, and finally 1 μL of 500 μM ATP solution was added to each well, and the plate was incubated at 30° C. for 2 hours. Then 5 μL of ADP-Glo was added, and the plate was incubated at 30° C. for 40 minutes. Then 10 μL of Kinase detection buffer was added, and the plate was incubated at 30° C. for 40 minutes. The 384-well plate was taken out and placed in a microplate reader (BMG labtech, PHERAstar FS), and the chemiluminescence was measured by the microplate reader.
as §2

Colo205 cells = test: In vitro proliferation inhibition test on Colo205 tumor cells (CellTiter-Glo); type: cell-based; settings: Homo sapiens, COLO 205, 72 h; Colo205 cell proliferation, 3 days of culture, CTG
Description: The purpose of this experiment is to test the inhibitory activity of the compounds on the proliferation of Colo205 cells (CCL-222, ATCC) in vitro. The cells were treated with different concentrations of compounds in vitro. After 3 days of culture, the cell proliferation was detected using CTG (CellTiter-Glo® Luminescent Cell Viability Assay, Promega, catalog number: G7573) reagent. The in vitro activity of the compounds was evaluated according to the IC50 value.
In the following, taking the in vitro proliferation inhibition test method of Colo205 cells as an example, the method in the present disclosure for testing the in vitro proliferation inhibitory activity of the compounds of the present disclosure is described. This method is also applicable to, but not limited to, the in vitro proliferation inhibitory activity test on other tumor cells.
Colo205 cells were digested, centrifuged and then resuspended. The single cell suspension was mixed well, and the density of viable cells was adjusted to 5.0×10^4 cells/ml with cell culture medium (RPMI1640+2% FBS), and 95 μl/well was added to a 96-well cell culture plate. Only 100 μl medium was added to the peripheral wells of the 96-well plate. The culture plate was incubated in an incubator for 24 hours (37° C., 5% CO2).
The compound was dissolved in DMSO (dimethyl sulfoxide, Shanghai Titan Scientific Co., Ltd.) and prepared into a stock solution with an initial concentration of 20 mM. The initial concentration of the small molecule compound is 2 mM, and then 4-fold diluted into to 9 points, and the tenth point is DMSO. Another 96-well plate was taken, 90 μl of cell culture medium (RPMI1640+2% FBS) was added to each well, then 10 μl of different concentrations of the test sample was added to each well, the mixture was mixed well, and then 5 μl of different concentrations of the test sample was added to the cell culture plate, and each sample has two duplicate holes. The culture plate was incubated in the incubator for 3 days (37° C., 5% CO2). The 96-well cell culture plate was taken out, 50 μl CTG solution was added to each well, and the plate was incubated for 10 minutes at room temperature. In a microplate reader (BMG labtech, PHERAstar FS), chemiluminescence was measured with the microplate reader.
as §2

[1] = Pharmacokinetics assay in mice; type: in vivo; settings: mouse, po, C57 mice (female), intragastric, 2 mg/kg, plasma; for Vd/F: read-out: Apparent distribution volume Vz/F; for AUC: read-out: Area under curve AUC; for CL/F: read-out: Clearance CLz/F; for half-life: read-out: Half Life T1/2 (converted); for Cmax: read-out: Plasma Concentration Cmax; for MRT: read-out: Residence Time MRT
Description: Mice were used as the test animal. The drug concentration in plasma at different time points was determined by LC/MS/MS method after administration of compound 3-P2, compound 4-P2, compound 9-P2, compound 10-P2, compound 12 and compound 15. The pharmacokinetic behavior of the compounds of the present disclosure in mice was studied, and the pharmacokinetic characteristics were evaluated.
54 of C57 mice (female) were equally divided into 6 groups, which were purchased from Shanghai Jiesijie Laboratory Animal Co., Ltd., with the animal production license number: SOCK (Shanghai) 2013-0006.
A certain amount of compound was weighted, followed by the addition of 5% volume of DMSO and 5% Tween 80 to dissolve it, then followed by the addition of 90% normal saline to prepare a colorless and clear solution of 0.1 mg/mL.
After an overnight fast, C57 mice were intragastrically administered the test compound at an administration dose of 2 mg/kg and an administration volume of 0.2 ml/10 g.
The mice were intragastrically administered the test compounds. 0.1mL of blood was taken before the administration and at 0.25, 0.5, 1.0, 2.0, 4.0, 6.0, 8.0, 11.0, 24.0 hours after the administration. The blood was placed in a heparinized test tube, and centrifuged at 3500 rpm for 10 minutes. The plasma was separated and stored at −20° C.
The content of the test compound in the plasma of mice after […] administration of the test compound at different concentrations was determined: 25 μl of mouse plasma at each time point after the administration was taken, followed by the addition of 50 μl of the internal standard camptothecin solution (100 ng/mL) and 200 μl of acetonitrile. The resulting solution was vortex-mixed for 5 minutes, and centrifuged for 10 minutes (4000 rpm). 4μl of the supernatant was taken from the plasma samples for LC/MS/MS analysis.

T1 sequence (P27361 whole entry): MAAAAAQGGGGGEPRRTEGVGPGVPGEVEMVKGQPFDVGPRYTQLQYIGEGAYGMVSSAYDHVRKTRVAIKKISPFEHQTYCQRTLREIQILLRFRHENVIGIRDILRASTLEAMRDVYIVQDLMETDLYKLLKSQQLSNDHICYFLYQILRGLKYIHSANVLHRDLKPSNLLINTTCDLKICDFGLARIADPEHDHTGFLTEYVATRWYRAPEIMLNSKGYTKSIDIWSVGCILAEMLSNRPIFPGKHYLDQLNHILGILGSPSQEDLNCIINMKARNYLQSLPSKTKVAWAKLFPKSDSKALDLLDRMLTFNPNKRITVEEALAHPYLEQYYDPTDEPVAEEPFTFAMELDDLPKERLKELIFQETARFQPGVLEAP

SMILES	IC50 (ERK1) [nM]	IC50 (ERK2) [nM]	IC50 (Colo205 cells) [nM]	Vd/F [1] [L/kg]	AUC [1] [ng·h/mL]	CL/F [1] [mL/min/kg]	half-life [1] [h]	Cmax [1] [ng/mL]	MRT [1] [h]
COc1cc(F)cc([C@@H](CO)NC(=O)[C@@H](C)N2CCc3sc(-c4nc(N[C@@H](C)CO)ncc4C)cc3C2=O)c1 [Example 17, (R)-N-((S)-1-(3-Fluoro-5-methoxyphenyl)-2-hydroxyethyl)-2-(2-(2-(((S)-1-hydroxypropan-2-yl)amino)-5-methylpyrimidin-4-yl)-4-oxo-6,7-dihydrothieno[3,2-c]pyridin-5(4H)-yl)prop ionamide]	12	2	17						
COc1cc(F)cc([C@@H](CO)NC(=O)[C@@H](C)N2CCc3sc(-c4nc(N[C@@H](C)CO)ncc4Cl)cc3C2=O)c1 [Example 12, (R)-2-(2-(5-Chloro-2-(((S)-1-hydroxypropan-2-yl)amino)pyrimidin-4-yl)-4-oxo-6,7-dihydrothieno[3,2-c]pyridin-5(4H)-yl)-N-((S)-1-(3-fluoro-5-methoxyphenyl)-2-hydroxyethyl)prop ionamide]	24	2	5	4.77	1600	20.8	2.65	1480	1.05
COc1cc(F)cc([C@@H](CO)NC(=O)[C@@H](C)N2CCc3sc(-c4nc(Nc5ccnn5C)ncc4C)cc3C2=O)c1 [Example 10-P2, (R)-N-((S)-1-(3-Fluoro-5-methoxyphenyl)-2-hydroxyethyl)-2-(2-(5-methyl-2-((1-methyl-1 H-pyrazol-5-yl)amino)pyrimidin-4-yl)-4-oxo-6,7-dihydrothieno[3,2-c]pyridin-5(4H)-yl)pro pionamide]	32	5	50	1.99	1830	18.2	1.26	1000	1.64
COc1cc(F)cc([C@@H](CO)NC(=O)[C@@H](C)N2CCc3sc(-c4nc(Nc5ccnn5C)ncc4Cl)cc3C2=O)c1 [Example 14, (R)-2-(2-(5-Chloro-2-((1-methyl-1H-pyrazol-5-yl)amino)pyrimidin-4-yl)-4-oxo-6,7-dihydrothieno[3,2-c]pyridin-5(4H)-yl)-N-((S)-1-(3-fluoro-5-methoxyphenyl)-2-hydroxyethyl)prop ionamide]	27	6	14						

The remaining lines, values ahead:

IC50 (ERK1) [nM]	IC50 (ERK2) [nM]	IC50 (Colo205 cells) [nM]	Vd/F [1] [L/kg]	AUC [1] [ng·h/mL]	CL/F [1] [mL/min/kg]	half-life [1] [h]	Cmax [1] [ng/mL]	MRT [1] [h]	SMILES
19	3	18	7.14	1820	18.4	4.49	1480	1.85	COc1cc(F)cc([C@@H](CO)NC(=O)[C@@H](C)N2CCc3sc(-c4nc(NC5CCOCC5)ncc4Cl)cc3C2=O)c1 [Example 9-P2, (R)-2-(2-(5-Chloro-2-((tetrahydro-2H-pyran-4-yl)amino)pyrimidin-4-yl)-4-oxo-6,7-dihydrothieno[3,2-c]pyridin-5(4H)-yl)-N-((S)-1-(3-fluoro-5-methoxyphenyl)-2-hydroxyethyl)prop ionamide]
5	2	16							COc1cc(F)cc([C@@H](CO)NC(=O)[C@@H](C)N2CCc3sc(-c4ccnc(NC5CCOCC5)n4)cc3C2=O)c1 [Example 11, (R)-N-((S)-1-(3-Fluoro-5-methoxyphenyl)-2-hydroxyethyl)-2-(4-oxo-2-(2-((tetrahydro-2H-pyran-4-yl)amino)pyrimidin-4-yl)-6,7-dihydrothieno[3,2-c]pyridin-5(4H)-yl)-propionamide]
3	1								COc1cc(F)cc([C@@H](CO)NC(=O)[C@@H](C)N2CCc3sc(-c4nc(NC5CCOCC5)ncc4C)cc3C2=O)c1 [Example 16, (R)-N-((S)-1-(3-Fluoro-5-methoxyphenyl)-2-hydroxyethyl)-2-(2-(5-methyl-2-((tetrahydro-2 H-pyran-4-yl)amino)pyrimidin-4-yl)-4-oxo-6,7-dihydrothieno[3,2-c]pyridin-5-(4H)-yl)prop ionamide]

Source: patent US20220213119A1, “THIENOHETEROCYCLIC DERIVATIVE, PREPARATION METHOD THEREFOR AND MEDICAL USE THEREOF” (Jiangsu Hengrui Medicine Ca, Lid., priority 2019, published 2022)
